Test results: patent publication US20170349540A1, “HISTONE DEACETYLASE INHIBITORS” (The General Hospital Corporation, priority 2014, published 2017)

Assays:
rats [1] = assay: Open field activity test; type: in vivo, rat; conditions: 20-fold higher doses relative to the FST tests (0.5 and 2.0 mg/kg i.p.), relative to vehicle-treated controls
Procedure: Behavioral testing was applied to a cohort of 12 rats. Following 7 days of daily i.p. treatment with i) vehicle (10% DMSO, 10% Tween 80, 80% saline; 2 mL/kg); or solubilized ii) the compound of Example 2 (0.025 mg/kg) or iii) the compound of Example 2 (0.1 mg/kg), rats were exposed to the modified forced swim test (FST). Briefly, FST exposure (15 min exposure, 25° C. tap water, 30 cm water depth) was performed 18-24 h after the previous i.p. treatment, after which rats were returned to their home cages to dry for approximately 2-3 h, then given daily i.p. treatment as before. FST testing was performed one day later (5 min test, 25° C. tap water, 30 cm water depth) with behaviors digitally recorded for subsequent analysis of immobility by a trained reviewer, blinded to treatment groups. Rats were returned to home cages and monitored without treatment for 72 h. Rats were then treated for 7 additional days with i) vehicle, ii) the compound of Example 2 (0.5 mg/kg) or iii) the compound of Example 2 (2.0 mg/kg) via daily i.p. injection; treatment assignments for each rat remained the same with a 20× increase in dose of the compound of Example 2. Animals were then evaluated for locomotor activity in an open field (60 cm square) using automated tracking software (MedAssociates). […]

[2] = Intravenous pharmacokinetics and brain distribution assay; type: in vivo, male Sprague Dawley rats; conditions: single i.v. dose 1 mg/kg
Procedure: Healthy male Sprague Dawley rats (8-12 weeks old) weighing between 200 to 250 g were procured from In vivo Bioscience, Bengluru, India. Three rats were housed in each cage. Temperature and humidity were maintained at 22±3° C. and 40-70%, respectively and illumination was controlled to give a sequence of 12 h light and 12 h dark cycle. Temperature and humidity were recorded by auto-controlled data logger system. All the animals were provided laboratory rodent diet (Vetcare India Pvt. Ltd, Bengaluru) ad libitum. Reverse osmosis water treated with ultraviolet light was provided ad libitum.
Sprague Dawley rats were intravenously administered a solution formulation of the compound of Example 2 prepared in 10% DMSO, 10% Tween 80, 80% normal saline. The blood samples were collected from a set of three rats at each time point in labeled micro centrifuge tube containing K2EDTA solution as anticoagulant. Plasma samples were separated by centrifugation of whole blood and stored at below −70° C. until bioanalysis. After collection of blood samples at each time point animals were humanely euthanized by CO2 and the brain was collected. Brain samples were homogenized using ice-cold phosphate buffer saline (pH=7.4) and homogenates were stored at below −70° C. until analysis. Total homogenate volume was three times the brain weight. All samples were processed for analysis by protein precipitation using acetonitrile and analyzed with fit-for-purpose LC-MS/MS method (LLOQ=1.01 ng/mL in plasma and brain). Pharmacokinetic parameters were calculated using the non-compartmental analysis tool of Phoenix WinNonlin® (Version 6.3).
The compound of Example 2 (5.89 mg) was added in a labeled bottle, followed by DMSO (2.945 mL), Tween 80 (2.945 mL), and normal saline (23.50 mL), and the resulting mixture was mixed by vortexing after each addition. The solution formulation was sonicated for 2 minutes to obtain a clear solution. After preparation of formulation, 200 μL samples were aliquoted for analysis. […] All formulations were freshly prepared prior to dosing. […]
Concentrations of the compound of Example 2 in rat plasma and brain samples were analyzed with fit-for-purpose by LC-MS/MS method. […] Following centrifugation, 100 µL of clear supernatant was transferred to a 96-well plate and analyzed using LC-MS/MS.
Non-Compartmental-Analysis module in Phoenix WinNonlin® (Version 6.3) was used to assess the pharmacokinetic parameters. […] The areas under the concentration time curve (AUClast and AUCinf) were calculated by linear trapezoidal rule. The terminal elimination rate constant, ke, was determined by regression analysis of the linear terminal portion of the log plasma concentration-time curve. […]

[3] = Weight gain of rats during treatment; type: in vivo, rat; conditions: daily i.p. treatment
Procedure: (§1) Behavioral testing was applied to a cohort of 12 rats. Following 7 days of daily i.p. treatment with i) vehicle (10% DMSO, 10% Tween 80, 80% saline; 2 mL/kg); or solubilized ii) the compound of Example 2 (0.025 mg/kg) or iii) the compound of Example 2 (0.1 mg/kg), rats were exposed to the modified forced swim test (FST). Briefly, FST exposure (15 min exposure, 25° C. tap water, 30 cm water depth) was performed 18-24 h after the previous i.p. treatment, after which rats were returned to their home cages to dry for approximately 2-3 h, then given daily i.p. treatment as before. FST testing was performed one day later (5 min test, 25° C. tap water, 30 cm water depth) with behaviors digitally recorded for subsequent analysis of immobility by a trained reviewer, blinded to treatment groups. Rats were returned to home cages and monitored without treatment for 72 h. […] Animals were then evaluated for locomotor activity in an open field (60 cm square) using automated tracking software (MedAssociates).
(§2) Rats were exposed to a 15 min session of forced swimming in 25° C. water (20 cm diameter cylinder, 30 cm water depth). […] After 1 day, rats were tested for immobility time during 5-min FST sessions which were videotaped and scored by a trained observer blinded to treatment groups.

rats [4] = assay: Forced swim test; type: in vivo, rat; conditions: 0.1 mg/kg i.p., against vehicle-treated controls, 5-min FST session
Procedure: as §1, §2

SMILES: CN(Cc1ccc(/C=C/C(=O)Nc2ccccc2N)cc1)CC12CC3CC(CC(C3)C1)C2 [Example 2, (E)-3-(4-((((3r,5r,7r)-adamantan-1-ylmethyl)(methyl)amino)methyl)phenyl)-N-(2-aminophenyl)acrylamide]
- effect in locomotor activity (open field) (rats [1]): no confounding effect in locomotor activity
- Kp ([2]; male, Sprague Dawley, rat, brain/plasma, iv, read-out: brain-to-plasma exposure ratio): 8.35
- clearance ([2]; male, Sprague Dawley, rat, plasma, iv): 79 mL/min/kg
- half-life ([2]; male, Sprague Dawley, rat, plasma, iv, read-out: elimination half-life (converted)): 54.6 min
- Vss relative to the normal volume of total body water (0.7 L/kg) [2]: 6 fold
- average weight gain of tested rats [3]: not impacted
- decrease in FST immobility scores (rats [4]): 17%
